Experimental data taken from patent US6737383B1, “Herbicidal oxadiazolidines” (priority 1999, dated 2004).

Tests used:
bamyardgrass = assay: Test B flood test barnyardgrass; type: in vivo, Echinochloa crus-galli; conditions: Rate 500 g/ha, Pre-emergence section of Table B; 0 to 10 scale (0 no effect, 10 complete control)
Outline: (§1)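 Read-out is a visual response score from 0 (no effect) to 10 (complete control), assigned by comparison with untreated controls. Treatment was applied at the 2-leaf stage, and plants stayed in the greenhouse for twelve to sixteen days before scoring.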

smallflower flatsedge = assay: Test B flood test smallflower flatsedge; type: in vivo, Cyperus difformis
Outline: as §1

purple nutsedge = assay: Test B pre/postemergence purple nutsedge; type: in vivo, Cyperus rotundus
Outline: (§2)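 Test chemicals in a non-phytotoxic solvent mixture with surfactant were sprayed preemergence onto planted seeds and postemergence onto plants 2 to 18 cm tall (1- to 4-leaf stage). After twelve to sixteen days in a greenhouse, injury was visually rated against untreated controls from 0 (no effect) to 10 (complete control).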

rape = assay: Test B pre/postemergence rape; type: in vivo, Brassica napus
Outline: as §2

soybean = assay: Test B pre/postemergence soybean; type: in vivo, Glycine max; conditions: for Plant response rating, Soybean: Postemergence
Outline: as §2

wheat = assay: Test B pre/postemergence wheat; type: in vivo, Triticum aestivum; conditions: for Plant response rating, Wheat: Postemergence
Outline: as §2

morningglory = assay: Test B pre/postemergence morningglory; type: in vivo, Ipomoea hederacea
Outline: as §2

surinam grass = assay: Test B pre/postemergence surinam grass; type: in vivo, Brachiaria decumbens
Outline: as §2

rice = assay: Test B flood test rice; type: in vivo, Oryza sativa
Outline: as §1

duck salad = assay: Test B flood test duck salad; type: in vivo, Heteranthera limosa
Outline: as §1

giant foxtail = assay: Test B pre/postemergence giant foxtail; type: in vivo, Setaria faberii
Outline: as §2

[1] = Rate 62 g/ha, flood test species, Pre-emergence, visual evaluation after twelve to sixteen days
[2] = Rate 125 g/ha, under heading Pre-emergence, flood test species, visual evaluation after twelve to sixteen days
[3] = Rate 250 g/ha, Pre-emergence (flood test species), scale 0 to 10, 0 is no effect, 10 is complete control
[4] = Rate 500 g/ha, Pre-emergence section of Table B, 0 to 10 scale (0 no effect, 10 complete control)
[5] = Postemergence, Rate 62 g/ha, scale of 0 to 10, 0 is no effect, 10 is complete control
[6] = Postemergence, Rate 500 g/ha, scale of 0 to 10 where 0 is no effect and 10 is complete control
[7] = Preemergence, Rate 62 g/ha, scale 0 to 10 (0 no effect, 10 complete control)
[8] = Preemergence, Rate 125 g/ha, scale 0 to 10, 0 is no effect, 10 is complete control
[9] = Preemergence, Rate 500 g/ha, scale of 0 to 10 where 0 is no effect and 10 is complete control
[10] = Postemergence, Rate 125 g/ha, scale 0 to 10, 0 is no effect, 10 is complete control
[11] = Rate 250 g/ha, Postemergence, scale of 0 to 10 where 0 is no effect and 10 is complete control
[12] = Rate 500 g/ha, scale of 0 to 10 where 0 is no effect and 10 is complete control
[13] = Rate 250 g/ha, scale of 0 to 10 where 0 is no effect and 10 is complete control

CC(C)N(C(=O)n1oc(=O)n(C[Si](C)(C)C)c1=O)c1ccccc1 [Compound 577]
Barnyardgrass plant response rating (bamyardgrass): 0 | Plant response rating, S. Flatsedge (0 to 10 scale, 0 is no effect, 10 is complete control) (smallflower flatsedge; [1]): 0 | S. Flatsedge plant response rating (0 to 10 scale, 0 is no effect, 10 is complete control) (smallflower flatsedge; [2]): 0 | S. Flatsedge plant response rating (smallflower flatsedge; [3]): 0 | S. Flatsedge plant response rating (smallflower flatsedge; [4]): 0 | Nutsedge plant response rating (purple nutsedge; [5]): 0 | Plant response rating, Nutsedge (purple nutsedge; [6]): 0 | Nutsedge plant response rating (purple nutsedge; [7]): 0 | Nutsedge plant response rating (purple nutsedge; [8]): 0 | Nutsedge plant response rating (0 to 10 scale) (purple nutsedge; Preemergence, Rate 250 g/ha): 0 | Nutsedge plant response rating (purple nutsedge; [9]): 0 | Rape plant response rating (rape; [5]): 0 | Rape plant response rating (rape; [10]): 0 | Plant response rating, Rape (rape; [6]): 0 | Rape plant response rating (rape; [7]): 0 | Rape plant response rating (rape; [8]): 0 | Rape plant response rating (0 to 10 scale) (rape; Preemergence, Rate 250 g/ha): 0 | Rape plant response rating (rape; [9]): 0 | Plant response rating, Rape (rape; [11]): 0 | Plant response rating, Soybean (soybean; [12]): 5 | Soybean plant response rating (soybean; [7]): 0 | Soybean plant response rating (soybean; [8]): 0 | Soybean plant response rating (0 to 10 scale) (soybean; Preemergence, Rate 250 g/ha): 0 | Soybean plant response rating (soybean; [9]): 0 | Plant response rating, Soybean (soybean; [13]): 3 | Plant response rating, Wheat (wheat; [12]): 0 | Wheat plant response rating (wheat; [7]): 0 | Wheat plant response rating (wheat; [8]): 0 | Wheat plant response rating (0 to 10 scale) (wheat; Preemergence, Rate 250 g/ha): 0 | Wheat plant response rating (wheat; [9]): 0 | Plant response rating, Wheat (wheat; [13]): 0 | Morningglory plant response rating (morningglory; [5]): 6 | Morningglory plant response rating (morningglory; [10]): 9 | Plant response rating, Morningglory (morningglory; [6]): 10 | Morningglory plant response rating (morningglory; [7]): 0 | Morningglory plant response rating (morningglory; [8]): 0 | Morningglory plant response rating (0 to 10 scale) (morningglory; Preemergence, Rate 250 g/ha): 8 | Morningglory plant response rating (morningglory; [9]): 9 | Plant response rating, Morningglory (morningglory; [11]): 10 | B. signalgrass plant response rating (surinam grass; [5]): 0 | B. signalgrass plant response rating (surinam grass; [10]): 0 | Plant response rating, B. signalgrass (surinam grass; [6]): 3 | B. signalgrass plant response rating (surinam grass; [7]): 0 | B. signalgrass plant response rating (surinam grass; [8]): 3 | B. signalgrass plant response rating (0 to 10 scale, 0 is no effect, 10 is complete control) (surinam grass; Preemergence, Rate 250 g/ha): 4 | B. signalgrass plant response rating (surinam grass; [9]): 7 | Plant response rating, B. signalgrass (surinam grass; [11]): 0 | Plant response rating, Rice (0 to 10 scale, 0 is no effect, 10 is complete control) (rice; [1]): 0 | Rice plant response rating (0 to 10 scale, 0 is no effect, 10 is complete control) (rice; [2]): 0 | Rice plant response rating (rice; [3]): 0 | Rice plant response rating (rice; [4]): 0 | Plant response rating, Ducksalad (0 to 10 scale, 0 is no effect, 10 is complete control) (duck salad; [1]): 0 | Ducksalad plant response rating (0 to 10 scale, 0 is no effect, 10 is complete control) (duck salad; [2]): 0 | Ducksalad plant response rating (duck salad; [3]): 0 | Ducksalad plant response rating (duck salad; [4]): 0 | Giant foxtail plant response rating (giant foxtail; [5]): 0 | Giant foxtail plant response rating (giant foxtail; [10]): 2 | Plant response rating, Giant foxtail (giant foxtail; [6]): 8 | Giant foxtail plant response rating (giant foxtail; [7]): 7 | Giant foxtail plant response rating (giant foxtail; [8]): 8 | Giant foxtail plant response rating (0 to 10 scale) (giant foxtail; Preemergence, Rate 250 g/ha): 9 | Giant foxtail plant response rating (giant foxtail; [9]): 10 | Plant response rating, Giant foxtail (giant foxtail; [11]): 2
